The subject of data set [1] is field EPSP in the rat dentate gyrus. Particulars: in vivo, ip; cited from earlier work.
The conditions of data set [2]: mouse, in vivo.
The conditions of data set [3]: mouse, in vivo. This is another data set of the same source.
Data set [4] has as its system 030418-induced acute death in mice. Also noted: species or system KM mice. Particulars: mouse, in vivo.
Data set [5] has as its system 030418-induced respiratory depression rats. Particulars: rat, in vivo.
In data set [6] the test system is hyperactivity induced by d-amphetamine. Particulars: in vivo, ip, 2 mg/kg; cited from earlier work.

As to `O=C(c1ccc2nccnc2c1)N1CCCCC1` [CX516, 6-(piperidin-1-yl-carbonyl)quinoxaline], the “increase in the amplitude of the field EPSP” value in data set [1] is 9%.

On to `CCCCCSS/C(CCOC(=O)CCCC(=O)OC1CCC(N(C)C(=O)c2ccc3nonc3c2)CC1)=C(/C)N(C)C=O` (stereo not drawn) [Compound 14, Pentanedioic acid anti-4-[(benzo[c][1,2,5]oxadiazole-5-carbonyl)-methyl-amino]-cyclohexyl ester 3-pentyldisulfanyl-4-(formyl-methyl-amino)-pent-3-enyl ester], for which, in data set [2], the “(AUC0-t)prodrug group/(AUC0-t)prototype drug group” value is 0.65. Further, in data set [3], the “(AUC0-t)prodrug/(AUC0-t)prototype drug” value is on record as 1.98.

Regarding `C/C(=C(\CCOC(=O)CCCC(=O)OC1CCC(N(C)C(=O)c2ccc3nonc3c2)CC1)SSCCC(C)C)N(C)C=O` (stereo not drawn) [Compound 15, Pentanedioic acid anti-4-[(benzo[c][1,2,5]oxadiazole-5-carbonyl)-methyl-amino]-cyclohexyl ester 3-isopentyldisulfanyl-4-(formyl-methyl-amino)-pent-3-enyl ester], the “survival rate of mice” value in data set [4] was “increase the survival rate of mice in a dose-dependent manner”. In addition, the “molar dose for the same anti-lethal effect, relative to Compound a” value in data set [4] (sc, 15 mg/kg) is recorded as “one-eighth”. Moreover, in data set [5], the “antagonism toward the decreased respiratory rate and ventilation caused by 030418” value is reported as “dose-dependent antagonism”; the “effect on respiratory rate and ventilation compared with Compound a” value was “same effect as Compound a (10 mg/kg)”. In addition, the “(AUC0-t)prodrug group/(AUC0-t)prototype drug group” value in data set [2] is 0.41. In addition, the “(AUC0-t)prodrug/(AUC0-t)prototype drug” value in data set [3] is on record as 2.23.

For the molecule `C/C(=C(\CCOC(=O)CCCC(=O)OC1CCC(N(C)C(=O)c2ccc3nonc3c2)CC1)SSCc1ccccc1)N(C)C=O` (stereo not drawn) [Compound 16, Pentanedioic acid anti-4-[(benzo[c][1,2,5]oxadiazole-5-carbonyl)-methyl-amino]-cyclohexyl ester 3-benzyldisulfanyl-4-(formyl-methyl-amino)-pent-3-enyl ester], the “(AUC0-t)prodrug group/(AUC0-t)prototype drug group” value in data set [2] was 0.41. In addition, in data set [3], the “(AUC0-t)prodrug/(AUC0-t)prototype drug” value came to 1.86.

Regarding `CCSS/C(CCOC(=O)CCCC(=O)OC1CCC(N(C)C(=O)c2ccc3nonc3c2)CC1)=C(/C)N(C=O)CC` (stereo not drawn) [Compound 17, Pentanedioic acid anti-4-[(benzo[c][1,2,5]oxadiazole-5-carbonyl)-methyl-amino]-cyclohexyl ester 3-ethyldisulfanyl-4-(formyl-ethyl-amino)-pent-3-enyl ester], in data set [2], the “(AUC0-t)prodrug group/(AUC0-t)prototype drug group” value turned out to be 0.61. Further, the “(AUC0-t)prodrug/(AUC0-t)prototype drug” value in data set [3] stood at 1.55.

Regarding `CCCN(C=O)/C(C)=C(/CCOC(=O)CCCC(=O)OC1CCC(N(C)C(=O)c2ccc3nonc3c2)CC1)SSCC` (stereo not drawn) [Compound 18, Pentanedioic acid anti-4-[(benzo[c][1,2,5]oxadiazole-5-carbonyl)-methyl-amino]-cyclohexyl ester 3-ethyldisulfanyl-4-(formyl-propyl-amino)-pent-3-enyl ester], the “(AUC0-t)prodrug group/(AUC0-t)prototype drug group” value in data set [2] is recorded as 0.73. Moreover, the “(AUC0-t)prodrug/(AUC0-t)prototype drug” value in data set [3] was 1.70.

As to `C/C(=C(\CCOC(=O)CCCC(=O)OC1CCC(N(C)C(=O)c2ccc3nonc3c2)CC1)SSCCC(C)C)N(C=O)CC(=O)OCC1OC(O)C(O)C(O)C1O` [Compound 19, Pentanedioic acid anti-4-[(benzo[c][1,2,5]oxadiazole-5-carbonyl)-methyl-amino]-cyclohexyl ester 3-isopentyldisulfanyl-4-[formyl-(D-glucos-6-yl-carbonylmethyl)-amino]-pent-3-enyl ester], in data set [2], the “(AUC0-t)prodrug group/(AUC0-t)prototype drug group” value came out at 0.73. Besides, the “(AUC0-t)prodrug/(AUC0-t)prototype drug” value in data set [3] is on record as 1.41.

As to `CCSS/C(CCOC(=O)CCCC(=O)OC1CCC(N(C)C(=O)c2ccc3nonc3c2)CC1)=C(/C)N(C=O)CC(=O)OCC1OC(O)C(O)C(O)C1O` [Compound 20, Pentanedioic acid anti-4-[(benzo[c][1,2,5]oxadiazole-5-carbonyl)-methyl-amino]-cyclohexyl ester 3-ethyldisulfanyl-4-[formyl-(D-glucos-6-yl-carbonylmethyl)-amino]-pent-3-enyl ester], the “(AUC0-t)prodrug group/(AUC0-t)prototype drug group” value in data set [2] was determined as 0.82. For the same molecule, the “(AUC0-t)prodrug/(AUC0-t)prototype drug” value in data set [3] was 1.65.

With `CN(C(=O)c1ccc2nonc2c1)C1CCC(O)CC1` (stereo not drawn) [Compound a, N-(anti-4-hydroxycyclohexyl)-N-methylbenzo[c][1,2,5]oxadiazol-5-yl-carboxamide, reference compound], the Death rate in data set [4] stood at 20%. Moreover, the “increase in the amplitude of the field EPSP” value in data set [1] was 21%. In addition, the inhibition of hyperactivity in data set [6] is reported as 100%.

(Values after US10759822B2 (priority 2016, dated 2020).)
